Patent US20240327427A1, “NEW COMPOUNDS FOR THE TREATMENT OF ALZHEIMER'S DISEASE” (Icahn School of Medicine at Mount Sinai, priority 2020, published 2024)
Entries after “also recorded” stand apart in the source; their conditions may differ.

Columns and labels:
ATP6V1A = ATP6V1A mRNA (qRT-PCR) and protein (western blot) levels in hiPSC-derived NGN2 neurons (iNs); format: cell-based, human
Description: To verify this discovery, the inventors measured the transcriptional and translational levels of ATP6V1A in D21 iNs treated with the 3 HDAC inhibitors at a series of concentrations between 1 and 30 μM.
CRISPR inhibition (CRISPRi) was used to repress endogenous ATP6V1A in hiPSC-derived NGN2 neurons. […] Next, the inventors investigated whether LQ081-166 rescued the phenotypes of ATP6V1A deficit and reduced neuronal activity.
(§1) Quantitative reverse transcription PCR (qRT-PCR) was performed as previously described. Specifically, cell cultures were harvested with Trizol and total RNA extraction was carried out following the manufacturer's instructions. Quantitative transcript analysis was performed using a QuantStudio 7 Flex Real-Time PCR System with the Power SYBR Green RNA-to-Ct Real-Time qPCR Kit (all Thermo Fisher Scientific). Total RNA template (25 ng per reaction) was added to the PCR mix, including primers listed below. qPCR conditions were as follows; 48° C. for 30 min, 95° C. for 10 min followed by 40 cycles (95° C. for 15 s, 60° C. for 60 s). All qPCR data is collected from at least 3 independent biological replicates of one experiment. Data analyses were performed using GraphPad PRISM 6 software.
Cells were rinsed with ice-cold phosphate-buffered saline (PBS), pelleted, and lyzed in RIPA Lysis and Extraction Buffer (Thermo Fisher Scientific, #89900) containing Halt™ Protease and Phosphatase Inhibitor Cocktail (Thermo Fisher Scientific, #78440). Alternatively, MSBB BM36 brain samples were homogenized with similar methods. Samples were sonicated for 1 minute then centrifuged at 13,000× rpm for 10 min. The supernatant was collected, and total protein concentration was determined using Quick Start™ Bradford Protein Assay (Bio-Rad, 5000201) following the manufacturer's instructions.
(§2) Images were captured and quantified using the Odyssey® Imaging Systems (LI-COR. Inc.).
(§3) A stock solution of LQ081-166 (molecular weight: 452.63) at 3 mM is prepared in dimethyl sulfoxide (DMSO). Once prepared, aliquot the stock solution into 100 μL amounts and store at −80° C. Avoid repeated freeze-thaw cycles. The stock is diluted 1000× into neuronal medium to obtain 3 μM for assays. After 24-hour treatment, RNA was extracted from cells for quantitative PCR. In the MEA assay, LQ081-166 was added on neuronal differentiation day 14. Replace with medium containing drug or vehicle every 2-3 days until the final recording day.

[1] = test system: SYN1, SCL17A7/VGLUT, PSD95, HOMER1; experiment: Synaptic marker mRNA and protein levels in iNs; format: cell-based, human
Description: as §1, §2

[2] = test system: hiPSC-derived NGN2 neurons; experiment: Multi-electrode array (MEA) neuronal activity; format: cell-based, human; conditions: 3 μM NCH-51
Description: To evaluate electrical activity of NGN2-neurons by MEA, density-matched isogenic NGN2-neuronal populations, co-cultured with pHAs, were prepared as described above. Specifically, at day 3, pHAs were split as 17,000 cells/well in a Matrigel-coated 48W MEA plate (Axion Biosystems, M768-tMEA-48W) and maintained as above. At day 7, NGN2-neurons were detached, spun down and seeded on the pHA culture. Outer space of each well in the plate was filled up with autoclaved/deionized water to minimize the evaporation of marginal wells (“edge effect”) during long-term culture. Half volume of neuronal medium (supplemented with 2% FBS) was replaced with fresh medium including 200 nM Ara-C from day 9 until the end of MEA recording. Electrical activity of neurons was recorded daily during day 14-24. On the recording day, the plate was loaded into the Axion Maestro MEA reader (Axion Biosystems). Recording was performed via AxiS 2.4 for 10 mins. Quantitative analysis of the recording was exported as a Microsoft excel sheet. Data were analyzed using GraphPad PRISM 6 software.
as §3

[3] = test system: Vha68-1, Vha68-2 (fly orthologs of ATP6V1A); experiment: Vha68-1/Vha68-2 mRNA levels in fly brains after drug feeding; format: in vivo, Drosophila; conditions: fed
Description: (§4) Since Vha68-2 decreased more dramatically compared to Vha68-1 in Aβ42 fly brains (FIG. 4Q), an inference was made that NCH-51 treatment counteracts pathological reductions in Vha68-2 levels. […] More than 25 flies for each genotype were collected and frozen. Heads were mechanically isolated, and total RNA was extracted using TRIzol Reagent (Thermo Fisher Scientific) according to the manufacturer's protocol with an additional centrifugation step (16,000×g for 10 min) to remove cuticle membranes prior to the addition of chloroform. Total RNA was reverse-transcribed using PrimeScript RT-PCR kit (TaKaRa Bio), and qRT-PCR was performed using Thunderbird SYBR qPCR Mix (Toyobo) on a CFX96 real time PCR detection system (Bio-Rad Laboratories). The average threshold cycle value was calculated from at least three replicates per sample. Expression of genes of interest was standardized relative to GAPDH1. Primer sequences are provided below. Flies were fed with the food containing 10 μM or 50 μM NCH51 or vehicle (final concentration 0.02% dimethyl sulfoxide) from the day after eclosion. These food vials were changed every 3-4 days.

[4] = test system: 16 genes related to synaptic biology; experiment: mRNA levels of key regulator genes of neuronal activity in Aβ42 fly brains; format: in vivo, Drosophila
Description: as §4, with “Aβ42 flies were treated with 0, 10, or 50 μM of NCH-51 during aging” for “Since Vha68-2 decreased more dramatically compared”, “examine its effects on neurodegeneration.” for “Vha68-1 in Aβ42 fly brains (FIG. 4Q), an inference was made that NCH-51 treatment counteracts pathological reductions in Vha68-2 levels.”

CC(C)C(=O)SCCCCCCC(=O)Nc1nc(-c2ccccc2)cs1 [NCH-51]
ATP6V1A mRNA level (ATP6V1A; 3 μM, 24-hr, particularly in ATP6V1A KD iNs, P<0.05): dramatically elevates
transcriptional and translational levels of ATP6V1A (ATP6V1A; D21 iNs, concentrations between 1 and 30 μM): effectively increased ATP6V1A levels
ATP6V1A protein yield (ATP6V1A; iNs, 3 μM): significantly increase the protein yield
ATP6V1A protein level (ATP6V1A; iNs, 3 μM, P<0.05): similarly increased
SCL17A7 mRNA level ([1]; 3 μM, 24-hr, iNs, P<0.001): dramatically elevates
presynaptic SYN1 mRNA level ([1]; 3 μM, 24-hr, iNs, P<0.001): dramatically elevates
HOMER1 levels ([1]; ATP6V1A KD iNs or isogenic controls): increased the HOMER1 levels
postsynaptic PSD95 ([1]; iNs): no effect
SYN1 protein level ([1]; iNs, 3 μM, P<0.01): similarly increased
VGLUT protein level ([1]; iNs, 3 μM, P<0.05): similarly increased
restoration of neuronal activity (MEA) ([2]; ATP6V1A KD iNs): partially restoring neuronal activity
neuronal activity (MEA spike events) ([2]; iNs): potent activator of neuronal activity
mRNA levels of Vha68-2 ([3]; Aβ42 fly brains, dose-dependent): significantly increased; also recorded: increased mRNA levels of Vha68-2
mRNA levels of Vha68-1 or Vha68-2 ([3]; control flies): did not increase
mRNA levels of synaptic biology related genes ([4]; dose-dependent): increased mRNA levels of synaptic biology related genes
number of key regulator genes of neuronal activity with increased mRNA levels ([4]; fed): 9 out of 16
